Patent US20100298141A1, “SUBSTITUTED PYRIDINE N-OXIDE HERBICIDES” (E. I. DU PONT DE NEMOURS AND COMPANY, priority 2007, published 2010)

Key:
morningglory = assay: Test A pre-/postemergence greenhouse test; format: in vivo, Ipomoea spp.; conditions: for Plant response rating, Morningglory: 0 to 100 scale where 0 is no effect and 100 is complete control; for Morningglory plant response rating: 0 to 100 scale
Method in brief: (§1)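 Untreated controls served as the reference for visual injury ratings taken about ten days after spraying. The non-phytotoxic solvent/surfactant formulation was applied preemergence to seeded loam and sand and postemergence to plants two to ten cm high.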

cocklebur = assay: Test C pre-/postemergence test; format: in vivo, Xanthium strumarium
Method in brief: (§2)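 Seeds were planted and treated preemergence with test chemical in a non-phytotoxic solvent mixture containing surfactant. Postemergence applications of the same formulation went onto plants 2 to 18 cm tall (1- to 4-leaf stage). A dash marks no test result.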

kochia = assay: Test C pre-/postemergence test; format: in vivo, Kochia scoparia
Method in brief: as §2

barnyardgrass [1] = assay: Test C flooded paddy test; format: in vivo, Echinochloa crus-galli; conditions: Flood
Method in brief: (§3)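 Under a constant 3 cm flood, test compounds went directly into the paddy water. Following 13 to 15 days of greenhouse growth, treated species and controls were compared by eye.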

pigweed = assay: Test C pre-/postemergence test; format: in vivo, Amaranthus retroflexus; conditions: for Pigweed plant response rating: preemergence, scale 0 (no effect) to 100 (complete control); for Plant response rating (0 to 100), Pigweed / Plant response rating, Pigweed: Postemergence; for Plant response rating, Pigweed: scale 0 to 100, 0 no effect, 100 complete control
Method in brief: as §2

Goosegrass = assay: Test C pre-/postemergence test; format: in vivo, Eleusin indica
Method in brief: as §2

barnyardgrass [2] = assay: Test A pre-/postemergence greenhouse test; format: in vivo, Echinochloa crus-galli; conditions: for Plant response rating, Barnyardgrass: 0 to 100 scale where 0 is no effect and 100 is complete control; for Barnyardgrass plant response rating: 0 to 100 scale
Method in brief: as §1

bermudagrass = assay: Test C pre-/postemergence test; format: in vivo, Cynodon dactylon
Method in brief: as §2

Surinam grass = assay: Test C pre-/postemergence test; format: in vivo, Brachiaria decumbens
Method in brief: as §2

lambsquarters = assay: Test C pre-/postemergence test; format: in vivo, Chenopodium album; conditions: for Plant response rating, Lambsquarters: scale 0 to 100, 0 no effect, 100 complete control
Method in brief: as §2

[3] = system: common (oilseed) sunflower; assay: Test C pre-/postemergence test; format: in vivo, Helianthus annuus
Method in brief: as §2

soybean = assay: Test C pre-/postemergence test; format: in vivo, Glycine max
Method in brief: as §2

crabgrass [4] = assay: Test C pre-/postemergence test; format: in vivo, Digitaria sanguinalis
Method in brief: as §2

crabgrass [5] = assay: Test A pre-/postemergence greenhouse test; format: in vivo, Digitaria sanguinalis; conditions: for Plant response rating, Crabgrass, Large: 0 to 100 scale where 0 is no effect and 100 is complete control; for Crabgrass, Large plant response rating: 0 to 100 scale
Method in brief: as §1

Italian ryegrass = assay: Test C pre-/postemergence test; format: in vivo, Lolium multiflorum
Method in brief: as §2

umbrella sedge = assay: Test C flooded paddy test; format: in vivo, Cyperus difformis; conditions: Flood
Method in brief: as §3

giant foxtail = assay: Test A pre-/postemergence greenhouse test; format: in vivo, Setaria faberi; conditions: for Plant response rating, Foxtail, Giant: 0 to 100 scale where 0 is no effect and 100 is complete control; for Foxtail, Giant plant response rating: 0 to 100 scale
Method in brief: as §1

[6] = Postemergence, 500 g ai/ha, 0 is no effect, 100 is complete control
[7] = Preemergence, 125 g ai/ha, 0 no effect, 100 complete control
[8] = 62 g ai/ha, Preemergence, scale 0 to 100
[9] = 125 g ai/ha, preemergence, scale 0 (no effect) to 100 (complete control)
[10] = Postemergence, 125 g ai/ha, scale 0 to 100, 0 no effect, 100 complete control
[11] = Postemergence, 250 g ai/ha, scale 0 to 100, 0 no effect, 100 complete control
[12] = Preemergence, 31 g ai/ha, scale 0 to 100 (0 no effect, 100 complete control)
[13] = preemergence, 250 g ai/ha, scale 0 (no effect) to 100 (complete control)
[14] = 62 g ai/ha, scale 0 to 100 (0 no effect, 100 complete control)
[15] = 250 g ai/ha, scale 0 to 100, 0 no effect, 100 complete control, 13 to 15 days

Cn1nc(C(F)(F)C(F)(F)F)c(C[S+]([O-])c2cccc[n+]2[O-])c1OCC(F)(F)F (centres unmarked) [Compound 79]
Plant response rating, Morningglory (morningglory; Postemergence, 125 g ai/ha): 50
Morningglory plant response rating (morningglory; [6]): 100
Morningglory plant response rating (morningglory; [7]): 60
Plant response rating, Morningglory (morningglory; Preemergence, 500 g ai/ha): 90
Cocklebur plant response rating (cocklebur; [8]): 0
Cocklebur plant response rating (cocklebur; [9]): 50
Plant response rating (0 to 100), Cocklebur (cocklebur; Postemergence, 31 g ai/ha): 0
Plant response rating (0 to 100), Cocklebur (cocklebur; Postemergence, 62 g ai/ha): 0
Plant response rating, Cocklebur (cocklebur; [10]): 0
Plant response rating, Cocklebur (cocklebur; [11]): 0
Plant response rating, Cocklebur (cocklebur; [12]): 0
Cocklebur plant response rating (cocklebur; [13]): 50
Kochia plant response rating (kochia; [8]): 100
Kochia plant response rating (kochia; [9]): 100
Plant response rating (0 to 100), Kochia (kochia; Postemergence, 31 g ai/ha): 0
Plant response rating (0 to 100), Kochia (kochia; Postemergence, 62 g ai/ha): 0
Plant response rating, Kochia (kochia; [10]): 0
Plant response rating, Kochia (kochia; [11]): 0
Plant response rating, Kochia (kochia; [12]): 100
Kochia plant response rating (kochia; [13]): 100
Plant response rating, Barnyardgrass (barnyardgrass [1]; [14]): 0
Plant response rating, Barnyardgrass (barnyardgrass [1]; [15]): 70
Pigweed plant response rating (pigweed; 125 g ai/ha): 70
Plant response rating (0 to 100), Pigweed (pigweed; 31 g ai/ha): 0
Plant response rating (0 to 100), Pigweed (pigweed; 62 g ai/ha): 0
Plant response rating, Pigweed (pigweed; 125 g ai/ha): 20
Plant response rating, Pigweed (pigweed; 250 g ai/ha): 60
Pigweed plant response rating (pigweed; 250 g ai/ha): 100
Goosegrass plant response rating (Goosegrass; [8]): 75
Goosegrass plant response rating (Goosegrass; [9]): 100
Plant response rating (0 to 100), Goosegrass (Goosegrass; Postemergence, 31 g ai/ha): 0
Plant response rating (0 to 100), Goosegrass (Goosegrass; Postemergence, 62 g ai/ha): 0
Plant response rating, Goosegrass (Goosegrass; [10]): 40
Plant response rating, Goosegrass (Goosegrass; [11]): 50
Plant response rating, Goosegrass (Goosegrass; [12]): 70
Goosegrass plant response rating (Goosegrass; [13]): 100
Plant response rating, Barnyardgrass (barnyardgrass [2]; Postemergence, 125 g ai/ha): 80
Barnyardgrass plant response rating (barnyardgrass [2]; [6]): 90
Barnyardgrass plant response rating (barnyardgrass [2]; [7]): 100
Plant response rating, Barnyardgrass (barnyardgrass [2]; Preemergence, 500 g ai/ha): 100
Bermudagrass plant response rating (bermudagrass; 62 g ai/ha, Preemergence, scale 0 to 100 (0 no effect, 100 complete control)): 100
Bermudagrass plant response rating (bermudagrass; [9]): 100
Plant response rating (0 to 100), Bermudagrass (bermudagrass; Postemergence, 31 g ai/ha): 0
Plant response rating (0 to 100), Bermudagrass (bermudagrass; Postemergence, 62 g ai/ha): 0
Plant response rating, Bermudagrass (bermudagrass; [10]): 45
Plant response rating, Bermudagrass (bermudagrass; [11]): 50
Plant response rating, Bermudagrass (bermudagrass; [12]): 95
Bermudagrass plant response rating (bermudagrass; [13]): 100
Surinam Grass plant response rating (Surinam grass; [8]): 85
Surinam Grass plant response rating (Surinam grass; [9]): 98
Plant response rating (0 to 100), Surinam Grass (Surinam grass; Postemergence, 31 g ai/ha): 0
Plant response rating (0 to 100), Surinam Grass (Surinam grass; Postemergence, 62 g ai/ha): 0
Plant response rating, Surinam Grass (Surinam grass; [10]): 30
Plant response rating, Surinam Grass (Surinam grass; [11]): 85
Plant response rating, Surinam Grass (Surinam grass; [12]): 60
Surinam Grass plant response rating (Surinam grass; [13]): 100
Lambsquarters plant response rating (lambsquarters; [8]): 90
Lambsquarters plant response rating (lambsquarters; [9]): 100
Plant response rating (0 to 100), Lambsquarters (lambsquarters; Postemergence, 62 g ai/ha): 0
Plant response rating, Lambsquarters (lambsquarters; Postemergence, 125 g ai/ha): 0
Plant response rating, Lambsquarters (lambsquarters; Postemergence, 250 g ai/ha): 70
Lambsquarters plant response rating (lambsquarters; [13]): 100
Sunflower plant response rating [3, 8]: 60
Sunflower plant response rating [3, 9]: 100
Plant response rating, Sunflower [3, 12]: 40
Sunflower plant response rating [3, 13]: 100
Soybean plant response rating (soybean; [8]): 60
Plant response rating (0 to 100), Soybean (soybean; Postemergence, 31 g ai/ha): 50
Plant response rating (0 to 100), Soybean (soybean; Postemergence, 62 g ai/ha): 55
Plant response rating, Soybean (soybean; [10]): 60
Plant response rating, Soybean (soybean; [12]): 60
Soybean plant response rating (soybean; [13]): 80
Crabgrass, Large plant response rating (crabgrass [4]; [8]): 80
Crabgrass, Large plant response rating (crabgrass [4]; [9]): 100
Plant response rating (0 to 100), Crabgrass, Large (crabgrass [4]; Postemergence, 31 g ai/ha): 0
Plant response rating (0 to 100), Crabgrass, Large (crabgrass [4]; Postemergence, 62 g ai/ha): 0
Plant response rating, Crabgrass, Large (crabgrass [4]; [10]): 0
Plant response rating, Crabgrass, Large (crabgrass [4]; [11]): 50
Plant response rating, Crabgrass, Large (crabgrass [4]; [12]): 40
Crabgrass, Large plant response rating (crabgrass [4]; [13]): 100
Plant response rating, Crabgrass, Large (crabgrass [5]; Postemergence, 125 g ai/ha): 70
Crabgrass, Large plant response rating (crabgrass [5]; [6]): 90
Crabgrass, Large plant response rating (crabgrass [5]; [7]): 70
Plant response rating, Crabgrass, Large (crabgrass [5]; Preemergence, 500 g ai/ha): 100
Ryegrass, Italian plant response rating (Italian ryegrass; [8]): 60
Ryegrass, Italian plant response rating (Italian ryegrass; [9]): 100
Plant response rating (0 to 100), Ryegrass, Italian (Italian ryegrass; Postemergence, 31 g ai/ha): 0
Plant response rating (0 to 100), Ryegrass, Italian (Italian ryegrass; Postemergence, 62 g ai/ha): 40
Plant response rating, Ryegrass, Italian (Italian ryegrass; [10]): 60
Plant response rating, Ryegrass, Italian (Italian ryegrass; [11]): 100
Plant response rating, Ryegrass, Italian (Italian ryegrass; [12]): 40
Ryegrass, Italian plant response rating (Italian ryegrass; [13]): 100
Plant response rating, Sedge, Umbrella (umbrella sedge; [14]): 90
Plant response rating, Sedge, Umbrella (umbrella sedge; [15]): 100
Plant response rating, Foxtail, Giant (giant foxtail; Postemergence, 125 g ai/ha): 80
Foxtail, Giant plant response rating (giant foxtail; [6]): 90
Foxtail, Giant plant response rating (giant foxtail; [7]): 90
Plant response rating, Foxtail, Giant (giant foxtail; Preemergence, 500 g ai/ha): 100
